Source: patent US20260272920A1, “NLRP3 MODULATORS” (Zomagen Biosciences Ltd, priority 2023, published 2026)

test system: NLRP3; experiment: IL-1β Assay in THP1 Cells (LPS priming + nigericin, NLRP3 activation); type: cell-based; conditions: Homo sapiens, THP-1; THP1 cells primed with 100 ng/mL LPS, 10 μM nigericin 3 hours; IL-1β released in supernatant; read-out: IL-1b (IC50)
Experimental: Example 10: IL-1β Assay in THP1 Cells
THP1 cells were primed with 100 ng/mL LPS in test medium (RPMI1640+GlutaMAX+25 mM HEPES+10% HI FBS+1% Pen/Strep) overnight at 37° C. and 5% CO2. Compounds were serially diluted in test medium and added to 200 000 cells/well for 1 hour at 37° C. and 5% CO2. After 1 hour, nigericin was added at 10 μM final concentration and incubated in at 37° C. and 5% CO2 for 3 hours to induce NLRP3 activation. IL-1β released from THP1 was detected in the cell supernatant by the ELLA (Simple Plex, Bio-Techne) Human IL-1β Immunoassays. The average of the positive control (LPS+nigericin) and the negative control (LPS alone) was calculated. The % inhibition of each test well was calculated by the following formula: % inhibition per well=[(average of positive control−single well signal value)/(average of positive control−average of negative control)]*100%. The compound inhibition curve was fitted by using a four-parameter logistic dose response equation: compound concentration was converted into logarithm base 10, and its concentration and % inhibition is imported into Graphpad prism software.

Row | SMILES | IC50 [nM]
1 | CCN1CCCC(C(O)c2cc(C)c(-c3ccc4c(F)c[nH]c4c3)nn2)C1 (stereo not drawn) [Compound 10, (1-ethylpiperidin-3-yl)(6-(3-fluoro-1H-indol-6-yl)-5-methylpyridazin-3-yl)methanol] | < 500
2 | Cc1cc(C(O)C2CCCN(C)C2)nnc1-c1ccc2occc2c1 (stereo not drawn) [Compound 16, (6-(benzofuran-5-yl)-5-methylpyridazin-3-yl)(1-methylpiperidin-3-yl)methanol] | < 500
3 | CCN1CCC[C@@H]([C@@H](O)c2cc(C)c(-c3ccc(C(F)(F)F)cc3)nn2)C1 [Compound 29, (R)-((R)-1-ethylpiperidin-3-yl)(5-methyl-6-(4-(trifluoromethyl)phenyl)pyridazin-3-yl)methanol] | < 500
4 | CCN1CCC[C@@H]([C@@H](O)c2cc(C)c(-c3ccc(C(F)(F)F)cc3OC(F)F)nn2)C1 [Compound 33, (R)-(6-(2-(difluoromethoxy)-4-(trifluoromethyl)phenyl)-5-methylpyridazin-3-yl)((R)-1-ethylpiperidin-3-yl)methanol] | < 500

The next lines start with the values.

Row | IC50 [nM] | SMILES
5 | < 500 | CCN1CCCC(C(O)c2cc(C)c(-c3ccc4cc[nH]c4c3)nn2)C1 (stereo not drawn) [Compound 12, (6-(1H-indol-6-yl)-5-methylpyridazin-3-yl) (1-ethylpiperidin-3-yl) methanol]
6 | < 500 | CCN1CCCC(C(O)c2cc(C)c(-c3ccc4occc4c3)nn2)C1 (stereo not drawn) [Compound 17, (6-(benzofuran-5-yl)-5-methylpyridazin-3-yl)(1-ethylpiperidin-3-yl)methanol]
7 | 500 to 3000 | Cc1cc(C(O)C2CCCN(C)C2)nnc1-c1ccc(C(F)(F)F)cc1CC(F)(F)F (stereo not drawn) [Compound 21, (5-methyl-6-(2-(2,2,2-trifluoroethyl)-4-(trifluoromethyl)phenyl)pyridazin-3-yl)(1-methylpiperidin-3-yl)methanol]
8 | 500 to 3000 | Cc1cc([C@H](O)[C@@H]2CCCN(C)C2)nnc1-c1ccc(C(F)(F)F)cc1 [Compound 28, (R)-(5-methyl-6-(4-(trifluoromethyl)phenyl)pyridazin-3-yl)((R)-1-methylpiperidin-3-yl)methanol]
9 | < 500 | Cc1cc([C@H](O)[C@@H]2CCCN(C)C2)nnc1-c1ccc(C(F)(F)F)cc1OC(F)F [Compound 31, (R)-(6-(2-(difluoromethoxy)-4-(trifluoromethyl)phenyl)-5-methylpyridazin-3-yl)((R)-1-methylpiperidin-3-yl)methanol]
